{
  "source": "patent US6494824B1",
  "about": "“Medical, radiotherapy source vial” (priority 1998, dated 2002)",
  "key": {"[1]": {"system": "balloon-injured coronary arteries (neointimal formation)", "test": "Angioplasty balloon injury of porcine coronary arteries, xenon-133 radiogas balloon irradiation, morphometry after two weeks", "format": "in vivo", "settings": "for IA (intimal area): two weeks after treatment, control 1.04 ± 0.20; for IA/FL (intimal area corrected for medical fracture length): control 0.55 ± 0.06", "description": "Prior art systems can falter with regards to dose homogeneity, optimal efficacy, radiation safety restrictions, patient handling, and radionuclide availability. The present medical radiation treatment system was developed and tested for irradiation with historically safe xenon-133 inert radiogas. In order to determine the efficacy of xenon-133 radiogas to inhibit neointimal formation and subsequent luminal restenosis, angioplasty balloon injury was performed in the coronary arteries of 17 juvenile porcine subjects. Following balloon injury of the coronary arteries of these porcine subjects, 3.0 to 3.5 mm balloons of 30 to 40 mm lengths were positioned to cover and overlap the injured vessel segment. A negative pressure was obtained in the radiocatheter prior to placement. Xenon-133 activity of 250-300 mCi (in 2.0-2.5 cc's) was injected to fill the balloon segment, uniformly abutting the lumen wall. A dose of either 15 Gy or 30 Gy was prescribed and delivered to a target tissue depth of 0.25 mm from the expanded balloon surface. The dwell time during inflation was 2±0.5 minutes (avg.). Prior in vitro dosimetry trials were performed to obtain reference micro-dosimetry results. Summary data analysis including reference tables and graphics, were performed and applied for delivery ranges as described above. This was performed using multiple trials with Cook GRII® balloon catheters of various coronary sizes with different quantities of xenon-133 (millicuries), exposure time (min.), and volumes (cc). Customized solid water phantoms, layered Gafchromic film, laser/light densitometry readings, and referenced dosimetry graphics were standardly applied to obtain these referenced measurements.\n(§1) Localization of the radiogas filled balloon was verified by Gamma Camera and fluoroscopic imaging. The radiation exposure measured 100 mR/h at the chest wall and 5 mR/h immediately bedside. Two weeks following treatment, the animals were harvested, the arteries perfusion fixed, stained, and morphometrically analyzed. The intimal area (IA) was compared between the irradiated and control arteries."}, "[2]": {"test": "Radiation exposure measured during radiogas balloon treatment", "format": "in vivo, porcine", "settings": "250-300 mCi in balloon", "description": "Prior art systems can falter with regards to dose homogeneity, optimal efficacy, radiation safety restrictions, patient handling, and radionuclide availability. The present medical radiation treatment system was developed and tested for irradiation with historically safe xenon-133 inert radiogas. In order to determine the efficacy of xenon-133 radiogas to inhibit neointimal formation and subsequent luminal restenosis, angioplasty balloon injury was performed in the coronary arteries of 17 juvenile porcine subjects. […] This was performed using multiple trials with Cook GRII® balloon catheters of various coronary sizes with different quantities of xenon-133 (millicuries), exposure time (min.), and volumes (cc). Customized solid water phantoms, layered Gafchromic film, laser/light densitometry readings, and referenced dosimetry graphics were standardly applied to obtain these referenced measurements.\nas §1, with “The intimal area (IA) was compared between the irradiated and control arteries.” left out"}},
  "data": [
    {"smiles": "[133Xe]", "note": "[Xe-133, xenon-133]", "values": [
      {"measurement": "% absolute ratio reduction (IA/FL vs control)", "setting": "[1]; 15 Gy", "result": 71, "unit": "%"},
      {"measurement": "IA (intimal area)", "setting": "[1]; 15 Gy at 0.25 mm tissue depth, n = 9", "result": "0.34 ± 0.17", "unit": "mm^2"},
      {"measurement": "share of group showing IA (mm^2) of ≦0.06", "setting": "[1]; 15 Gy group", "result": 66, "unit": "%"},
      {"measurement": "IA/FL (intimal area corrected for medical fracture length)", "setting": "[1]; 15 Gy, n = 9", "result": "0.16 ± 0.08"},
      {"measurement": "% absolute ratio reduction (IA/FL vs control)", "setting": "[1]; 30 Gy", "result": 45, "unit": "%"},
      {"measurement": "IA (intimal area)", "setting": "[1]; 30 Gy at 0.25 mm tissue depth, n = 8", "result": "0.38 ± 0.18", "unit": "mm^2"},
      {"measurement": "share of group showing IA (mm^2) of ≦0.06", "setting": "[1]; 30 Gy group", "result": 44, "unit": "%"},
      {"measurement": "thrombosis", "setting": "[1]; 30 Gy group", "result": "slight trend toward increased thrombosis"},
      {"measurement": "IA/FL (intimal area corrected for medical fracture length)", "setting": "[1]; 30 Gy, n = 8", "result": "0.32 ± 0.12"},
      {"measurement": "neointimal formation (conclusion from harvested vessels)", "setting": "[1]; porcine model, radiogas balloon catheter", "result": "effective in markedly reducing neointimal formation"},
      {"measurement": "radiation exposure", "setting": "[2]; at the chest wall", "result": 100, "unit": "mR/h"},
      {"measurement": "radiation exposure", "setting": "[2]; immediately bedside", "result": 5, "unit": "mR/h"}
    ]}
  ]
}
